According to patent US20220072324A1, “METHOD AND SYSTEM FOR APPLYING PULSED ELECTRIC FIELDS WITH HIGH […] MAGNETIC CORES” (Board of Supervisors of Louisiana State University and …, priority 2018, published 2022):

Tested on: mouse breast cancer 4T1 cells xenografts
Assay: In vivo validation of Targeted Osmotic Lysis (TOL) in a breast cancer mouse model
Set-up: species or system BALBc mice
Conditions: TOL: 7 mg/kg digoxin s.c. five times at 1 hr intervals plus pulsed magnetic fields from toroid device for 30 min, day 0 and day 1; versus control groups; FIG. 9
Protocol: FIG. 9 depicts in vivo validation of the therapeutic efficacy of pulsed magnetic fields inducing osmotic lysis in a breast cancer mouse model. Four groups of female, immune competent BALBc mice (n=8) with xenografts (0.7-1.2 cm diameter lower back) were established after injection of 500K highly malignant mouse breast cancer 4T1 cells in 7 mg/kg digoxin or saline (s.c. back of neck) five times at 1 hr intervals. This protocol establishes steady-state pharmacokinetics in even poorly vascularized tissues. The mice were exposed to the pulsed magnetic fields generated by a toroid device, for 30 min starting 15 min after the last injection. This treatment was administered on day 0 (first day of treatment), and on day 1. Mice were monitored for tumor growth and were sacrificed when they met the NIH criteria for humane endpoint euthanasia.

Compound: C[C@H]1O[C@@H](O[C@H]2[C@@H](O)C[C@H](O[C@H]3[C@@H](O)C[C@H](O[C@H]4CC[C@@]5(C)[C@H](CC[C@@H]6[C@@H]5C[C@@H](O)[C@]5(C)[C@@H](C7=CC(=O)OC7)CC[C@]65O)C4)O[C@@H]3C)O[C@@H]2C)C[C@H](O)[C@@H]1O [digoxin]
- time until mice reached humane endpoint euthanasia criteria: significantly longer than mice in the control groups
